Legend:
Assay type in all cases: in vivo, human
[1] = system: panel of 4 trained sensory evaluators; experiment: Taste and spit assay, descriptive taste impression versus base samples, panel of 4 trained sensory evaluators (Examples 3 to 31); conditions: acesulfame K 350 wppm
Description: (§1) All tests were conducted under controlled and standardized conditions.
(§2) The samples were prepared by a trained laboratory assistant.
35 ml of the samples were served at room temperature in clear plastic cups.
The following samples comprising a composition of the invention were tested for their ability to improve the taste of artificial sweeteners.
All samples were tested in duplicate and evaluated at least 3 different concentrations in comparison to 3 base samples (samples 1 to 3).
The panelists were asked to evaluate and to describe the taste impression of the samples 4 to 13 containing a sweetener composition comprising acesulfame potassium, sucralose and a composition of the invention, e.g. bitter aftertaste, creaminess, fullness and character of the sweeteners in each case in comparison to the base samples 1 to 3.
The results of the taste and spit assay are based in each case on a qualitative evaluation of the differences between the samples.

panelists [2] = experiment: Dilution of naringin in water until its taste is no longer detectable (Example 34); conditions: diluted in water
From the text: The method comprises the step of selecting at least one flavoring. The flavorings may be as discussed herein. The method may further comprise the step of diluting the at least one flavoring with a diluent to form a diluted composition to determine a flavor threshold level at which the flavor of the flavoring is not detectable, e.g., by taste, in the diluted composition. In order to make this determination, the diluted composition may be sampled, e.g., tasted, at various stages of dilution. As the diluted composition becomes more dilute, the flavor of the flavorant will become less recognizable or identifiable. The flavor threshold level is the point at which the flavor of the flavoring is no longer recognized or identified by a taster or taste panel. The method further comprises the step of adding at least one flavoring to a sweetener and/or sweetness enhancer to form a sweetener composition. The sweeteners and/or sweetness enhancers are discussed above. The sweeteners and/or sweetness enhancers may have an unpleasant off-taste associated therewith, as discussed above. Preferably, the flavoring is added to the sweetener and/or the sweetness enhancer at a level at or below the flavor threshold level.
Naringin was diluted in water until the diluted solution reached a concentration of 1.6 wppm. At this concentration, its taste was no longer detectable in water.

panelists [3] = experiment: Naringin at non-detectable concentration tested in acesulfame K and acesulfame K/sucralose solutions (Example 34); conditions: naringin 1.6 wppm (not detectable) in acesulfame K (350 ppm) solution and in acesulfame K (350 wppm)/sucralose (80 wppm) solution; all panelists
From the text: The method further comprises the step of determining whether the at least one flavoring, when present in the sweetener composition at or below the flavor threshold level, is capable of modifying, masking, reducing and/or suppressing the unpleasant off-taste of the sweetener/sweetness enhancer in the sweetener composition. This determination may be made by employing suitable methods known in the art. For example the determination may be made by utilizing a taster or a taste panel. The taster may sample the prepared sweetener composition and make a determination as to whether the off-taste has been modified, masked, reduced, and/or suppressed. If so, then the particular flavoring is capable of modifying, masking, reducing, and/or suppressing unpleasant off-tastes. Preferably, the flavor of the flavoring is not detectable, e.g., by taste, in the sweetener composition, the sweetness enhancer composition, and/or the consumable product composition.
Then, naringin was tested at this concentration in an aceslfame K (350 ppm) solution and in an acesulfame K (350 wppm)/sucralose (80 wppm) solution.

[4] = system: panel of 11 trained sensory evaluators; experiment: Taste and spit assay with regard to sweetness in the aftertaste, panel of 11 trained sensory evaluators (Example 2); conditions: aqueous samples; 35 ml at 6.0-8.0 °C; aftertaste after 2 minutes; 11 panelists; qualitative, FIG. 2
Description: Air was constantly exchanged.
as §2
(§3) The panel used the sweetness scale anchored by three concentrations of sucrose:
(§4) Sweetness was assessed with the 1st sip (max. 30 ml, min of 15 ml) and scored in the aftertaste (after 2 minutes).
(§5) All samples were tested in duplicate.

[5] = system: panel of 4 trained sensory evaluators; experiment: Taste and spit assay with regard to sweetness in the aftertaste, panel of 4 trained sensory evaluators (Example 33); conditions: 35 ml at 6.0-8.0 °C; aftertaste after 2 minutes; all 4 panelists; qualitative
Description: as §1, §2, §3, §4, §5
The samples with the same composition as in Example 1 have been assessed: […]

[6] = composition with amino acids: benzaldehyde 0.02 wppm in sample 13 (sucralose 75 wppm), quinine 0.01 wppm in sample 32 (sucralose 80 wppm)
[7] = composition without amino acids: benzaldehyde 0.02 wppm in sample 12, quinine 0.01 wppm in sample 31, sucralose 80 wppm

## O=Cc1ccccc1 [Benzaldehyde, benzaldehyde]
[1]; [6]
  further effect added to the composition by the substance used below its threshold: did not add any further effect to the composition of the invention
[1]; [7]
  further effect added to the composition by the substance used below its threshold: did not add any further effect to the composition of the invention

## C[C@@H]1O[C@@H](O[C@H]2[C@H](Oc3cc(O)c4c(c3)O[C@H](c3ccc(O)cc3)CC4=O)O[C@H](CO)[C@@H](O)[C@@H]2O)[C@H](O)[C@H](O)[C@H]1O [Naringin]
Panelists [2]
  concentration at which its taste was no longer detectable in water: 1.6 wppm
Panelists [3]
  effect on the bitter aftertaste of acesulfame K: improve the bitter aftertaste of acesulfame K

## C=C[C@H]1C[N@@]2CC[C@H]1C[C@H]2[C@H](O)c1ccnc2ccc(OC)cc12 [Quinine, quinine]
[1]; [6]
  further effect added to the composition by the substance used below its threshold: does not add anything to the effects of the composition
[1]; [7]
  further effect added to the composition by the substance used below its threshold: does not add anything to the effects of the composition

## delta-undecalactone
[1]; delta-undecalactone 0.0388 wppm in sample 14 with naringin, 4-methoxy salicylaldehyde, syringaldehyde, whiskey lactone, sucralose 80 wppm, all panelists
  taste contribution of the lactone to the total composition: not being too volatile and as adding a creamy taste, and as improving the total composition

## saccharose [Sample 1]
[4]
  sweetness in the aftertaste: less sweet in the aftertaste than acesulfame potassium and sucralose
[5]
  sweetness in the aftertaste: less sweet in the aftertaste compared to acesulfame potassium and sucralose

Reference: patent US20130136839A1, “Taste-Masking Compositions, Sweetener Compositions and Consumable Product Compositions Containing the Same” (Nutrinova Nutrition Specialties & Food Ingredients GmbH, priority 2011, published 2013)
